# Entries after “also recorded” stand apart in the source; their conditions may differ. Like-named read-outs stand apart in the source and are kept apart here.
# Key:
# [1] = test system: TCRαβ Skw3 transfectant C1 (TCR of top clone of patient TEN-3); assay type: cell-based, human; conditions: 24 h with autologous EBV-transformed B cells, no drug 2.3; for % of CD69 expression in CD3+ transfectants, Concentration 2: Allopurinol/Oxypurinol 62.5 μg/ml, Sulfamethoxazole 100 μg/ml; for % of CD69 expression in CD3+ transfectants, Concentration 3: Allopurinol/Oxypurinol 250 μg/ml, Sulfamethoxazole 200 μg/ml
# Description: (§1) In brief, rearranged human variable TCR α- and β genes identified by TCR sequencing were synthesized by custom gene synthesis (GeneUniversal, Newark, Delaware, USA) and cloned into retroviral pMSCV Vector (Takara Bio USA Inc, Mountain View, California, USA) containing puromycin and neomycin resistance genes respectively.
# (§2) Levels of CD69 expression were monitored in 10,000 CD3^+ events. Experiments were repeated at least 2 times.
# (§3) Skw3 cell lines engineered for the expression of TCRs bearing Vα and Vβ chains from top clones found in patients TEN-3,-7,-10 and -15 were stimulated in vitro with EBV-transformed B cells in presence of graded doses of different drugs, or left unpulsed. […] Results from control transductants generated from Abacavir- (17D), Allopurinol-(AnWeAl) or Sulfamethoxazole- (UNO H13) allergic donors (53) (51) (7) are also shown. Bold and underlined values indicate >2 or >1.5 CD69 expression fold increase versus unpulsed cultures.
# [2] = test system: TCRαβ Skw3 transfectant C4 (TCR of top clone of patient TEN-15); assay type: cell-based, human; conditions: for CD69 expression response of transduced Skw3 cells to drug (in words): transductant from patient TEN-15; for % of CD69 expression in CD3+ transfectants, Concentration 1 / % of CD69 expression in CD3+ transfectants, Concentration 2 / % of CD69 expression in CD3+ transfectants, Concentration 3: transfectant C4, 24 h; for % of CD69 expression in CD3+ transfectants, Concentration 1: Levofloxacin (no drug 6.0) / Metronidazole (no drug 6.3) 25 μg/ml; for % of CD69 expression in CD3+ transfectants, Concentration 2: Levofloxacin (no drug 6.0) / Metronidazole (no drug 6.3) 50 μg/ml; for % of CD69 expression in CD3+ transfectants, Concentration 3: Levofloxacin (no drug 6.0) / Metronidazole (no drug 6.3) 100 μg/ml
# Description: Skw3 cell lines (Leibniz Institute DSMZ, Brunswick, Germany, (50)) were transduced as described previously (51). […] The resulting retroviruses were used to transduce the TCR-defective Skw3 cell line, which also expresses the human CD8 coreceptor. The TCR-transduced cells outgrowing in selective medium were picked, and the expression of the correct TCR α and β was further assessed by flow cytometry, using a FACS-Canto-I device (BD-Biosciences, San Jose, CA, USA). The transduced cells with stable TCR expression were selected for assessment of reactivity and specificity, which was measured by TCR-induced CD69 expression. Skw3 cell lines expressing the cognate TCR α and β chains were cocultured with autologous EBV-transformed B-lymphoblastoid cell lines (52) at 1:2 ratio at 37° C. Tested drugs were added to the cocultures with the indicated concentrations. After 24 h, cells were stained with anti-human CD3 (Biolegend) and anti-human CD69 (Biolegend) and analysed by flow cytometry. […] Experiments were repeated at least 2 times. […] Then, the productive rearranged TCRα and TCRβ chains were transduced into Skw3 cells, a TCR defective lymphoma line (28) (data not shown). After verification of sustained and stable TCR expression (data not shown), transduced Skw3 cells were stimulated with the culprit (or control) drug in presence of autologous Epstein Barr Virus (EBV)-transformed B cells generated from patient's PBMCs. The following day, we measured CD69 expression at the surface of Skw3 cells, as marker for TCR stimulation. […] Heterologous EBV-transformed B cells were also used to stimulate control transductants.
# [3] = test system: human CD38+CD8+ T cells; test: Model of graft versus host versus disease (GVHD): NGS mice reconstituted with PBMCs from a healthy donor; assay type: in vivo, mouse
# Description: NGS mice were reconstituted with 10×10^6 PBMCs from a healthy donor, and treated by two-weekly injections of an anti-CD38+ mAb (Daratumumab, at 100 or 300 microg/mouse). Control group received PBS. Results depict the percentage +/−SD of CD38+ fraction among human CD8+ T cells present in the spleen, as evaluated by flow cytometry 28 days after PBMCs injection.
# NGS mice were reconstituted with 10×10^6 PBMCs from a healthy donor, and treated by two-weekly injections of an anti-CD38+ mAb (Daratumumab, at 100 or 300 microg/mouse). Control group received PBS. The percentage of humanization was measured by flow cytometry at day 5 and at day 12 after PBMC injection. It was calculated by dividing the percentage of human blood CD45+ cells/the percentage of total (mouse+human) blood CD45+ cells.
# To this end, NGS mice were reconstituted with 10×10^6 peripheral blood mononuclear cells (PBMCs) from a healthy donor, and treated by two-weekly injections of daratumumab (at 100 or 300 microg/mouse). Control group received PBS. Reconstitution is generally assessed by measuring the ratio of humanization (calculated by dividing the % of human blood CD45+ cells/the % of […]). A high ratio of humanization (>50-60%) classically correlates with the appearance of GVHD symptoms, approximately 1 month after transfer.
# [4] = test system: cytotoxic CD8+CD38+ T cells; test: TEN preclinical model: NSG mice transferred with PBMCs from a TEN patient and given lamotrigine; daratumumab evaluation; assay type: in vivo, mouse; conditions: for depletion of already expanded CD38+ cells (CD8+CD38+ T cells) / depletion of cytotoxic CD8+CD38+Granzyme B+Granulysin+ T cell subset: curative mode: injections from day 29; for depletion of already expanded CD38+ cells (CD8+CD38+ T cells): blood (FIG. 16); for depletion of cytotoxic CD8+CD38+Granzyme B+Granulysin+ T cell subset: blood (FIG. 17); for formation/expansion of cytotoxic CD8+CD38+Granzyme B+Granulysin+ T cell subset: blood (FIG. 15A); for formation/expansion of CD4+CD38+ and CD8+CD38+ T cells: preventive mode: i.p. 200 mg twice weekly from day 4, blood and spleen, throughout the protocol, versus control isotype (FIG. 13); for depletion of cytotoxic cells expressing the TCRVbeta7.1+ chain (CD8+Vbeta7.1+ T cells): spleen at day 31, versus isotype-treated controls (FIG. 12)
# Description: (§4) NSG animals were adoptively transferred at day 0 with 1.10^6 millions PBMCs collected from a TEN patient, and successively administrated with lamotrigine (the culprit drug; every day, from day 4. In parallel, NSG mice were injected i.p. with […] of daratumumab or a control isotype twice weekly, starting mAb injections from day 4 (preventive mode). Results depict the kinetic of human CD8+Vbeta7.1+ T cell expansion measured by flow cytometry in the spleen of NSG mice at day 31. Results are expressed as mean and individual % of Vbeta7.1+ cell fraction among total CD8+ T cells. Ten mice per group were used in this experiment. Of note, 3.2% of Vbeta7.1+ cells were detected in CD8+ T cells at the time of cell transfer (day 0).
# as §4, with “CD4+CD38+/− and CD8+CD38+/−” for “CD8+Vbeta7.1+”, “blood” for “spleen”, “throughout the protocol.” for “at day 31.”, “number” for “%”, “CD38+(A) and CD38− (B) cells/mL blood.” for “Vbeta7.1+ cell fraction among total CD8+ T cells.”, “experiment.” for “experiment. Of note, 3.2% of Vbeta7.1+ cells were detected in CD8+ T cells at the time of cell transfer (day 0).”
# (§5) NSG animals were adoptively transferred at day 0 with 1.10^6 millions PBMCs collected from a TEN patient, and successively administrated with lamotrigine (the culprit drug; or vehicle by oral gavage, every day, from day 4. In parallel, NSG mice were injected i.p. with […] of daratumumab or a control isotype twice weekly, starting mAb injections from day 4 (preventive mode). Results depict the kinetic of human CD4+ and CD8+ T cell expansion measured by flow cytometry in the blood of NSG mice throughout the protocol. Results are expressed as mean and individual number of CD4+ and CD8+ T cells/mL blood. Ten mice per group were used in this experiment.
# as §5, with “drug; 0.1 mg/kg/day),” for “drug; or vehicle by oral gavage,”, “human cytotoxic CD8+CD38+/−GranzymeB+Granulysin+” for “human CD4+ and CD8+”, “of CD8+CD38+GranzymeB+Granulysin+” for “of CD4+”, “and CD8+CD38+GranzymeB+Granulysin+ cells/mL blood (A). Details for total CD8+GranzymeB+Granulysin+” for “and CD8+”, “T cells are also shown (B).” for “T cells/mL blood.”
# NSG animals were adoptively transferred at day 0 with 1.10^6 millions PBMCs collected from a TEN patient, and successively administrated with lamotrigine (the culprit drug; every day, from day 4. In parallel, NSG mice were injected i.p. with […] of daratumumab or a control isotype twice weekly, starting mAb treatment from day 4 (preventive mode) or from day 29 (curative mode). Results depict the kinetic of human CD8+CD38+/− T cell expansion measured by flow cytometry in the blood of NSG mice throughout the protocol. Results are expressed as mean and individual % of CD38+ and CD38− fractions among total CD8+ T cells. Five mice per group were used in this experiment. […]
# [5] = test system: Skw3 control transductant AnWe A1 (Allopurinol-allergic donor); test: TCR-transductant stimulation assay, control transductant AnWe A1; assay type: cell-based, human; conditions: 24 h, heterologous EBV-transformed B cells, no drug 4.3; for % of CD69 expression in CD3+ transfectants, Concentration 2: Allopurinol/Oxypurinol 62.5 μg/ml; for % of CD69 expression in CD3+ transfectants, Concentration 3: Allopurinol/Oxypurinol 250 μg/ml
# Description: as §1, §2, §3
# [6] = test system: Skw3 control transductant 17D (Abacavir-allergic donor); test: TCR-transductant stimulation assay, control transductant 17D; assay type: cell-based, human; conditions: control 17D, 24 h, heterologous EBV-transformed B cells, no drug 1.4
# Description: Skw3 cell lines (Leibniz Institute DSMZ, Brunswick, Germany, (50)) were transduced as described previously (51). […] The resulting retroviruses were used to transduce the TCR-defective Skw3 cell line, which also expresses the human CD8 coreceptor. The TCR-transduced cells outgrowing in selective medium were picked, and the expression of the correct TCR α and β was further assessed by flow cytometry, using a FACS-Canto-I device (BD-Biosciences, San Jose, CA, USA). The transduced cells with stable TCR expression were selected for assessment of reactivity and specificity, which was measured by TCR-induced CD69 expression. Skw3 cell lines expressing the cognate TCR α and β chains were cocultured with autologous EBV-transformed B-lymphoblastoid cell lines (52) at 1:2 ratio at 37° C. Tested drugs were added to the cocultures with the indicated concentrations. After 24 h, cells were stained with anti-human CD3 (Biolegend) and anti-human CD69 (Biolegend) and analysed by flow cytometry. […] Experiments were repeated at least 2 times. […] Heterologous EBV-transformed B cells were also used to stimulate control transductants.
# [7] = 300 microg/mouse, 2 times a week
compound,measurement,setting,value
Cc1cc(NS(=O)(=O)c2ccc(N)cc2)no1 [Sulfamethoxazole],"% of CD69 expression in CD3+ transfectants, Concentration 2",[1],1.3%
same,"% of CD69 expression in CD3+ transfectants, Concentration 3",[1],1.4%
Cc1ncc([N+](=O)[O-])n1CCO [Metronidazole],CD69 expression response of transduced Skw3 cells to drug (in words),[2],failed to respond
same,CD69 expression response of transduced Skw3 cells to drug (in words),[2]; listed as metronidazole,failed to detect robust CD69+ expression
same,"% of CD69 expression in CD3+ transfectants, Concentration 1",[2],5.7%
same,"% of CD69 expression in CD3+ transfectants, Concentration 2",[2],5.4%
same,"% of CD69 expression in CD3+ transfectants, Concentration 3",[2],6.0%
Daratumumab,"GVHD development, higher regimen",[3]; [7],failed to prevent GVDH development
same,"T cell expansion, higher regimen",[3]; [7],transiently inhibited T cell expansion
same,expansion of human cells (ratio of humanization),"[3]; day 12, 7 days after the initial daratumumab injection, blood (FIG. 8)",transiently inhibited the expansion of human cells
same,expansion of human cells (ratio of humanization),"[3]; day 19, 14 days after the initial daratumumab injection",inhibition was lost
same,development of the GVHD,"[3]; day 28, two-weekly injections, 100 or 300 microg/mouse",failed to hamper the development of the GVHD
same,human CD38+CD8+ T cell levels in blood,[3]; murine GVHD model,reduction of human CD8+CD38+ T cell levels in blood; also recorded: reduction of human CD38+CD8+ T cells levels in blood
same,depletion of CD38+ cells (CD38+ fraction among human CD8+ T cells),"[3]; two-weekly injections, 100 or 300 microg/mouse, spleen, flow cytometry, 28 days after PBMCs injection (FIG. 7), preliminary experiments",depleted CD38+ cells
same,depletion of already expanded CD38+ cells (CD8+CD38+ T cells),[4],acutely depleted the CD38+ cells that have already expanded
same,depletion of already expanded CD38+ cells (CD8+CD38+ T cells),[4]; listed as Daratumamub,efficiently depleted
same,depletion of cytotoxic CD8+CD38+Granzyme B+Granulysin+ T cell subset,[4],acutely depleted
same,depletion of cytotoxic CD8+CD38+Granzyme B+Granulysin+ T cell subset,[4]; listed as Daratumamub,efficiently depleted
same,expansion of T cell subsets which do not express CD38 marker,"[4]; preventive mode, from day 4 (FIG. 13B)",did not avoid the progressive expansion of some T cell subsets
same,formation/expansion of cytotoxic CD8+CD38+Granzyme B+Granulysin+ T cell subset,"[4]; preventive mode, from day 4",preventing the formation of cytotoxic CD8+CD38+Granzyme B+Granulysin+ T cell subset
same,formation/expansion of cytotoxic CD8+CD38+Granzyme B+Granulysin+ T cell subset,"[4]; preventive mode, from day 4, listed as Daratumamub",strongly inhibited the expansion
same,accumulation of cytotoxic T cells (total CD8+GranzymeB+Granulysin+),"[4]; preventive mode, from day 4, blood (FIG. 15B)",severely impaired the accumulation of cytotoxic T cells
same,global T cell expansion (CD4+ and CD8+ T cells/mL blood),"[4]; preventive mode, from day 4, versus control isotype (FIG. 14)",Lower expansion; also recorded: dramatically delayed and impaired the global T cell expansion
same,formation/expansion of CD4+CD38+ and CD8+CD38+ T cells,[4],efficiently and extensively prevented the formation of CD4+CD38+ and CD8+CD38+ T cells
same,formation/expansion of CD4+CD38+ and CD8+CD38+ T cells,[4]; listed as Daratumamub,blocked the expansion
same,depletion of cytotoxic cells expressing the TCRVbeta7.1+ chain (CD8+Vbeta7.1+ T cells),[4]; preventive mode,strong depletion
same,depletion of cytotoxic cells expressing the TCRVbeta7.1+ chain (CD8+Vbeta7.1+ T cells),"[4]; preventive mode, listed as Daratumamub",preferentially depleted
O=c1[nH]c(=O)c2c[nH]nc2[nH]1 [Oxypurinol],"% of CD69 expression in CD3+ transfectants, Concentration 2",[5],5.0%
same,"% of CD69 expression in CD3+ transfectants, Concentration 3",[5],5.75%
same,"% of CD69 expression in CD3+ transfectants, Concentration 2",[1],22.9%
same,"% of CD69 expression in CD3+ transfectants, Concentration 3",[1],39.6%
Nc1nc(NC2CC2)c2ncn([C@H]3C=C[C@@H](CO)C3)c2n1 [Abacavir],"% of CD69 expression in CD3+ transfectants, Concentration 1","[6]; Abacavir 1 μg/ml, Pantoprazole 12.5 μg/ml",93.2%
same,"% of CD69 expression in CD3+ transfectants, Concentration 2","[6]; Abacavir 10 μg/ml, Pantoprazole 25 μg/ml",88.9%
same,"% of CD69 expression in CD3+ transfectants, Concentration 3","[6]; Abacavir 20 μg/ml, Pantoprazole 50 μg/ml",93.1%
C[C@H]1COc2c(N3CCN(C)CC3)c(F)cc3c(=O)c(C(=O)O)cn1c23 [Levofloxacin],"% of CD69 expression in CD3+ transfectants, Concentration 1",[2],5.6%
same,"% of CD69 expression in CD3+ transfectants, Concentration 2",[2],5.4%
same,"% of CD69 expression in CD3+ transfectants, Concentration 3",[2],4.4%
Oc1ncnc2[nH]ncc12 [Allopurinol],"% of CD69 expression in CD3+ transfectants, Concentration 2",[5],17.1%
same,"% of CD69 expression in CD3+ transfectants, Concentration 3",[5],26.4%
same,"% of CD69 expression in CD3+ transfectants, Concentration 2",[1],2.2%
same,"% of CD69 expression in CD3+ transfectants, Concentration 3",[1],3.05%

# From patent US20240003879A1, “METHODS FOR DIAGNOSIS AND MONITORING OF TOXIC EPIDERMAL NECROLYSIS” (INSERM (INSTITUT NATIONAL DE LA SANTÉ ET DE LA RECHERCHE …, priority 2020, published 2024)
